{"source": "patent US6586457B2", "about": "“Methods for inhibiting bone resorption” (Merck & Co., Inc., priority 1998, dated 2003)", "key": {"EP4 mRNA [1]": {"system": "EP4 mRNA", "experiment": "EP4 mRNA levels in RP-1 periosteal cells (Northern blot)", "format": "cell-based, rat", "details": "10^-6 M", "description": "(§1) RP-1 periosteal cells are spontaneously immortalized from primary cultures of periosteal cells from tibae of 4-week old Sprague-Dawley rats and are cultured in DMEM (BRL, Gaithersburg, Md.) with 10% fetal bovine serum (JRH Biosciences, Lenexa, Kans.). […] Total RNA is extracted from the tibial metaphysis or diaphysis and calvaria using a guanidinium isothiocyanate-phenol-chloroform method after pulverizing frozen bone samples by a tissue homogenizer. See P. Chomczynski et al., Single-step method of RNA isolation by acid guanidium thiocyanate-phenol-chloroform extraction., Analyt Biochem, 162, 156-159 (1987), which is incorporated by reference herein in its entirety. RNA samples ([…]) are separated on 0.9% agarose/formaldehyde gels and transferred onto nylon membranes (Boehringer Mannheim, Germany). Membranes are prehybridized in Hybrisol I (Oncor, Gaithersburg, Md.) and 0.5 mg/ml sonicated salmon sperm DNA (Boehringer) at 42° C. for 3 hours and are hybridized at 42° C. with rat EP2 and mouse EP4 cDNA probes labeled with [^32P]-dCTP (Amersham, Buckinghamshire, UK) by random priming using the rediprime kit (Amersham). After hybridization, membranes are washed 4 times in 2×SSC+0.1% SDS at room temperature for a total of 1 hour and once with 0.2×SSC+0.1% SDS at 55° C. for 1 hour and then exposed to Kodak XAR 2 film at −70° C. using intensifying screens. […]"}, "EP4 mRNA [2]": {"system": "EP4 mRNA", "experiment": "EP4 mRNA levels in RCT-3 cells (Northern blot)", "format": "cell-based, rat", "description": "(§2) RCT-1 and RCT-3 are clonal cell lines immortalized by SV-40 large T antigen from cells released from fetal rat calvair by a cmbination collagenase/hyaluronidase digestion. RCT-1 cells, derived from cells released during the first 10 minutes of digestion (fraction I), are cultured in RPMI 1640 medium (BRL) with 10% fetal bovine serum and 0.4 mg/ml G418 (BRL). […] RCT-3 cells, immortalized from osteoblast-enriched fraction III cells, are cultured in F-12 medium (BRL) with 5% Fetal bovine serum and 0.4 mg/ml G418. TRAB-11 cells are also immortalized by SV40 large T antigen from adult rat tibia and are cultured in RPMI 1640 medium with 10% FBS and 0.4 mg/ml G418. ROS 17/2.8 rat osteosarcoma cells are cultured in F-12 containing 5% FBS. Osteoblast-enriched (fraction III) primary fetal rat calvaria cells are obtained by collagenase/hyaluronidase digestion of calvariae of 19 day-old rat fetuses. See Rodan et al., Growth stimulation of rat calvaria osteoblastic cells by acidic FGF, Endocrinology, 121, 1919-1923 (1987), which is incorporated by reference herein in its entirety. Cells are released during 30-50 minutes digestion (fraction III) and are cultured in F-12 medium containing 5% FBS. Total RNA is extracted from the tibial metaphysis or diaphysis and calvaria using a guanidinium isothiocyanate-phenol-chloroform method after pulverizing frozen bone samples by a tissue homogenizer. […]"}, "EP2 mRNA [3]": {"system": "EP2 mRNA", "experiment": "EP2 mRNA expression in RP-1 cells (Northern blot)", "format": "cell-based, rat", "description": "as §1"}, "ROS 17/2.8 cells": {"system": "ROS 17/2.8 cells", "experiment": "Intracellular cAMP in ROS 17/2.8 cells", "format": "cell-based, rat", "description": "as §2, with “FBS.” for “FBS. Total RNA is extracted from the tibial metaphysis or diaphysis and calvaria using a guanidinium isothiocyanate-phenol-chloroform method after pulverizing frozen bone samples by a tissue homogenizer.”"}, "RCT-3 cells": {"system": "RCT-3 cells", "experiment": "Intracellular cAMP in RCT-3 cells", "format": "cell-based, rat", "description": "as §2, with “FBS.” for “FBS. Total RNA is extracted from the tibial metaphysis or diaphysis and calvaria using a guanidinium isothiocyanate-phenol-chloroform method after pulverizing frozen bone samples by a tissue homogenizer.”"}, "TRAB-11 cells": {"system": "TRAB-11 cells", "experiment": "Intracellular cAMP in TRAB-11 cells", "format": "cell-based, rat", "description": "as §2, with “FBS.” for “FBS. Total RNA is extracted from the tibial metaphysis or diaphysis and calvaria using a guanidinium isothiocyanate-phenol-chloroform method after pulverizing frozen bone samples by a tissue homogenizer.”"}, "EP4 mRNA [4]": {"system": "EP4 mRNA", "experiment": "EP4 mRNA levels in vivo in bone tissue after systemic administration (Northern blot)", "parameters": "species or system rat", "description": "For mRNA localization experiments, 5-week old Sprague-Dawley rats (Charles River) are euthanized by CO2, their tibiae and calvariae are excised, cleaned of soft tissues and frozen immediately in liquid nitrogen. For EP4 regulation experiments, 6-week old rats are given a single injection of either vehicle (7% ethanol in sterile water) or an anabolic dose of PGE2 (Cayman Chemical, Ann Arbor, Mich.), 3-6 mg/kg in the same vehicle) intraperitoneally. Animals are euthenized at several time points post-injection and their tibiae and calvariae, as well as samples from lung and kidney tissues are frozen in liquid nitrogen. Total RNA is extracted from the tibial metaphysis or diaphysis and calvaria using a guanidinium isothiocyanate-phenol-chloroform method after pulverizing frozen bone samples by a tissue homogenizer. See P. Chomczynski et al., Single-step method of RNA isolation by acid guanidium thiocyanate-phenol-chloroform extraction., Analyt Biochem, 162, 156-159 (1987), which is incorporated by reference herein in its entirety. RNA samples ([…]) are separated on 0.9% agarose/formaldehyde gels and transferred onto nylon membranes (Boehringer Mannheim, Germany). Membranes are prehybridized in Hybrisol I (Oncor, Gaithersburg, Md.) and 0.5 mg/ml sonicated salmon sperm DNA (Boehringer) at 42° C. for 3 hours and are hybridized at 42° C. with rat EP2 and mouse EP4 cDNA probes labeled with [^32P]-dCTP (Amersham, Buckinghamshire, UK) by random priming using the rediprime kit (Amersham). After hybridization, membranes are washed 4 times in 2×SSC+0.1% SDS at room temperature for a total of 1 hour and once with 0.2×SSC+0.1% SDS at 55° C. for 1 hour and then exposed to Kodak XAR 2 film at −70° C. using intensifying screens. After developing the films, bound probes are removed twice with 0.1% SDS at 80° C. and membranes are hybridized with a human GAPDH (Glyceraldehyde 3-Phosphate Dehydrogenase) cDNA probe (purchased from Clontech, Palo Alto, Calif.) for loading control. To examine if PGE2 regulates EP4 mRNA levels in vivo in bone tissue, […] male rats are injected with PGE2 (3-6 mg/Kg)."}, "EP2 mRNA [5]": {"system": "EP2 mRNA", "experiment": "EP2 mRNA in vivo in bone tissue after systemic administration", "details": "RP-1 cells and rat bone tissue", "description": "For mRNA localization experiments, 5-week old Sprague-Dawley rats (Charles River) are euthanized by CO2, their tibiae and calvariae are excised, cleaned of soft tissues and frozen immediately in liquid nitrogen. For EP4 regulation experiments, 6-week old rats are given a single injection of either vehicle (7% ethanol in sterile water) or an anabolic dose of PGE2 (Cayman Chemical, Ann Arbor, Mich.), 3-6 mg/kg in the same vehicle) intraperitoneally. Animals are euthenized at several time points post-injection and their tibiae and calvariae, as well as samples from lung and kidney tissues are frozen in liquid nitrogen. Total RNA is extracted from the tibial metaphysis or diaphysis and calvaria using a guanidinium isothiocyanate-phenol-chloroform method after pulverizing frozen bone samples by a tissue homogenizer. See P. Chomczynski et al., Single-step method of RNA isolation by acid guanidium thiocyanate-phenol-chloroform extraction., Analyt Biochem, 162, 156-159 (1987), which is incorporated by reference herein in its entirety. RNA samples ([…]) are separated on 0.9% agarose/formaldehyde gels and transferred onto nylon membranes (Boehringer Mannheim, Germany). […]"}, "EP4 mRNA [6]": {"system": "EP4 mRNA", "experiment": "In situ hybridization of EP4 expression in tibial bone marrow cells", "format": "in vivo, rat", "details": "rats, single anabolic dose", "description": "For mRNA localization experiments, 5-week old Sprague-Dawley rats (Charles River) are euthanized by CO2, their tibiae and calvariae are excised, cleaned of soft tissues and frozen immediately in liquid nitrogen. For EP4 regulation experiments, 6-week old rats are given a single injection of either vehicle (7% ethanol in sterile water) or an anabolic dose of PGE2 (Cayman Chemical, Ann Arbor, Mich.), 3-6 mg/kg in the same vehicle) intraperitoneally. Animals are euthenized at several time points post-injection and their tibiae and calvariae, as well as samples from lung and kidney tissues are frozen in liquid nitrogen.\nFrozen tibiae are sectioned coronally at […] thickness and sections are mounted on charged slides (Probe On Plus, Fisher Scientific, Springfield, N.J.) and are kept at −70° C. until hybridization. cRNA probes are labeled with ^35S-UTPgS (ICN, Costa Mesa, Calif.) using a Riboprobe II kit (Promega Madison, Wis.). Hybridization is performed overnight at 50° C. […]\nIn situ hybridization is used in order to localize cells expressing EP4 in bone. In control experiment (vehicle-injected) rats, low expression of EP4 was detected in bone marrow cells. […]"}, "[7]": {"details": "rats, 3-6 mg/Kg, systemic injection"}, "[8]": {"details": "young adult rats, 3-6 mg/kg, systemic"}}, "note": "“Also recorded” adds a separate entry of the source.", "data": [{"smiles": "CCCCCC(O)/C=C/[C@H]1C(O)CC(=O)C1C/C=C\\CCCC(=O)O", "note": "(stereo partly shown) [PGE2]", "values": [{"measurement": "effect on EP4 mRNA levels", "setting": "EP4 mRNA [1]", "result": "rapidly increases EP4 mRNA levels; also recorded: increases the level of EP4 mRNA"}, {"measurement": "time of peak of EP4 mRNA levels after treatment", "setting": "EP4 mRNA [1]", "result": 2, "unit": "h"}, {"measurement": "effect on EP4 mRNA levels", "setting": "EP4 mRNA [2]", "result": "no effect on EP4 mRNA levels"}, {"measurement": "EP2 mRNA expression before or after treatment", "setting": "EP2 mRNA [3]", "result": "not expressed"}, {"measurement": "effect on intracellular cAMP", "setting": "ROS 17/2.8 cells", "result": "no effect on intracellular cAMP"}, {"measurement": "effect on intracellular cAMP", "setting": "RCT-3 cells", "result": "markedly induced"}, {"measurement": "effect on intracellular cAMP", "setting": "TRAB-11 cells", "result": "markedly induced"}, {"measurement": "effect on EP4 mRNA levels in tibial diaphysis", "setting": "EP4 mRNA [4]; [7]", "result": "rapidly increased EP4 mRNA levels"}, {"measurement": "time of peak of EP4 mRNA levels in tibial diaphysis after injection", "setting": "EP4 mRNA [4]; [7]", "result": 2, "unit": "h"}, {"measurement": "effect on expression of EP4 in tibiae and calvariae", "setting": "EP4 mRNA [4]; [8]", "result": "upregulates the expression of EP4"}, {"measurement": "time of peak of EP4 upregulation in tibiae and calvariae", "setting": "EP4 mRNA [4]; [8]", "result": "1 to 2", "unit": "h"}, {"measurement": "induction of EP2 mRNA in RP-1 cells and bone tissue", "setting": "EP2 mRNA [5]", "result": "does not include EP2 mRNA"}, {"measurement": "effect on expression of EP4 in bone marrow cells", "setting": "EP4 mRNA [6]", "result": "increasesd the expression of EP4"}]}]}
